Experimental data: US11746087B1, “C4-carboxylic acid-substituted tryptamine derivatives and methods of using” (priority 2022, dated 2023)
Several values for one entry are separate records, joined by “and”; a condition that tells them apart may be missing. Equal values may be shown once. Read-outs that look alike come from different tables or passages of the source.

Assay: Mouse PK study (IV and PO), plasma parent compound and psilocin by LC-MS/MS
Assay type: in vivo
Details: for Plasma concentration of psilocin: BLQ <0.2 ng/mL; for F: C(I); for half-life: read-out: Apparent t1/2 (converted); for MRT inf: read-out: MRT0-inf
Excerpt: Briefly, the procedure was as follows. […] 19, 2022.

[1] = C(I) in plasma, 3 mg/kg oral C(I), per animal, 3 mg/kg
[2] = C(I) in plasma, 10 mg/kg oral C(I), per animal, 10 mg/kg
[3] = male, C57Bl/6, mouse, plasma, intravenous, 1 mg/kg, 1 mg/kg i.v. C(I), Mean ± SD, read-out: Plasma concentration of C(I)
[4] = male, C57Bl/6, mouse, plasma, iv, 1 mg/kg, C(I) in plasma, 1 mg/kg i.v. C(I), Mean ± SD
[5] = male, C57Bl/6, mouse, plasma, iv, 1 mg/kg, C(I) in plasma, 1 mg/kg i.v. C(I), per animal
[6] = male, C57Bl/6, mouse, plasma, oral, 1 mg/kg, 1 mg/kg oral C(I), Mean ± SD, read-out: Plasma concentration of C(I)

**Q.** Which “Plasma concentration of psilocin” value (1 mg/kg i.v. C(I), 6 h, per animal) does the source give for `CN(C)CCc1c[nH]c2cccc(OC(=O)c3ccc(Br)cc3)c12` [C(I)] here?
**A.** BLQ

**Q.** What about the “Plasma concentration of C(I)” value (1 mg/kg i.v. C(I), 6 h, per animal, BLQ <0.5 ng/mL) of the same compound?
**A.** BLQ

**Q.** And the “Plasma concentration of psilocin” value (1 mg/kg i.v. C(I), 8 h, per animal)?
**A.** BLQ

**Q.** And the “Plasma concentration of C(I)” value (1 mg/kg i.v. C(I), 8 h, per animal, BLQ <0.5 ng/mL)?
**A.** BLQ (2×) and No Peak

**Q.** What about the “Plasma concentration of C(I)” value (1 mg/kg oral C(I), 1 h, per animal, BLQ <0.5 ng/mL) of the same compound?
**A.** BLQ

**Q.** And the “Plasma concentration of C(I)” value (1 mg/kg oral C(I), 2 h, per animal, BLQ <0.5 ng/mL)?
**A.** BLQ

**Q.** And the “Plasma concentration of C(I)” value (1 mg/kg oral C(I), 4 h, per animal, BLQ <0.5 ng/mL)?
**A.** BLQ

**Q.** What about the “Plasma concentration of C(I)” value (1 mg/kg oral C(I), 6 h, per animal, BLQ <0.5 ng/mL) of the same compound?
**A.** BLQ

**Q.** And the “Plasma concentration of psilocin” value (1 mg/kg oral C(I), 8 h, per animal)?
**A.** BLQ

**Q.** And the “Plasma concentration of C(I)” value (1 mg/kg oral C(I), 8 h, per animal, BLQ <0.5 ng/mL)?
**A.** BLQ

**Q.** And the “Plasma concentration of psilocin” value (1 mg/kg oral C(I), 24 h, per animal)?
**A.** No Peak (2×) and BLQ

**Q.** And the “Plasma concentration of C(I)” value (1 mg/kg oral C(I), 24 h, per animal, BLQ <0.5 ng/mL)?
**A.** No Peak and No (2×)

**Q.** What about the “Plasma concentration of C(I)” value (3 mg/kg oral C(I), 8 h, per animal, BLQ <0.5 ng/mL) of the same compound?
**A.** BLQ

**Q.** What about the “Plasma concentration of psilocin” value (3 mg/kg oral C(I), 24 h, per animal) of the same compound?
**A.** No Peak

**Q.** What about the “Plasma concentration of C(I)” value (3 mg/kg oral C(I), 24 h, per animal, BLQ <0.5 ng/mL) of the same compound?
**A.** No Peak

**Q.** What about the “Plasma concentration of psilocin” value (10 mg/kg oral C(I), 24 h, per animal) of the same compound?
**A.** BLQ

**Q.** And the “Plasma concentration of C(I)” value (10 mg/kg oral C(I), 24 h, per animal, BLQ <0.5 ng/mL)?
**A.** No Peak

**Q.** What about the AUC0-tlast/Dose (C(I) in plasma, 1 mg/kg i.v. C(I), mean (n = 2)) of the same compound?
**A.** 57.6 (n = 2) h * kg * ng/mL/mg

**Q.** And the VSS (C(I) in plasma, 1 mg/kg i.v. C(I), per animal, 1 mg/kg)?
**A.** 12.65 L/kg

**Q.** And the AUC0-tlast/Dose (C(I) in plasma, 1 mg/kg oral C(I), Mean ± SD)?
**A.** 1.34 ± 1.02 kg·ng·h/mL/mg

**Q.** And the Tmax (C(I) in plasma, 1 mg/kg oral C(I), per animal)?
**A.** 30 min

**Q.** And the Cmax/Dose (C(I) in plasma, 1 mg/kg oral C(I), per animal, 1 mg/kg)?
**A.** 0.54 kg·ng/mL/mg

**Q.** What about the Cmax/Dose [1] of the same compound?
**A.** 0.650 kg·ng/mL/mg and 0.720 kg·ng/mL/mg and 0.780 kg·ng/mL/mg

**Q.** And the Tmax [1]?
**A.** 30 min

**Q.** What about the Cmax [2] of the same compound?
**A.** 7.10 ng/mL

**Q.** What about the Cmax/Dose [2] of the same compound?
**A.** 0.720 kg·ng/mL/mg and 0.710 kg·ng/mL/mg

**Q.** And the Tmax [2]?
**A.** 30 min

**Q.** What about the F (1 mg/kg oral C(I), Mean ± SD, AUC0-tlast used for p.o. group, might be under-estimated) of the same compound?
**A.** 0.355 ± 0.272%

**Q.** And the F (1 mg/kg oral C(I), Mean ± SD, if M37 (i.v.) is considered as an outlier)?
**A.** 2.30 ± 1.76%

**Q.** And the F (1 mg/kg oral C(I), per animal, AUC0-tlast used for p.o. group, might be under-estimated, 1 mg/kg)?
**A.** 0.0450%

**Q.** And the F (1 mg/kg oral C(I), per animal, if M37 (i.v.) is considered as an outlier, 1 mg/kg)?
**A.** 3.59% and 0.291% and 3.01%

**Q.** And the F (3 mg/kg oral C(I), Mean ± SD, AUC0-tlast used for p.o. group, might be under-estimated)?
**A.** 0.491 ± 0.0292%

**Q.** And the F (3 mg/kg oral C(I), Mean ± SD, if M37 (i.v.) is considered as an outlier)?
**A.** 3.18 ± 0.189%

**Q.** And the F (3 mg/kg oral C(I), per animal, AUC0-tlast used for p.o. group, might be under-estimated, 3 mg/kg)?
**A.** 0.466%

**Q.** What about the F (3 mg/kg oral C(I), per animal, if M37 (i.v.) is considered as an outlier, 3 mg/kg) of the same compound?
**A.** 3.02% and 3.13% and 3.39%

**Q.** And the F (10 mg/kg oral C(I), Mean ± SD)?
**A.** 0.498 ± 0.113%

**Q.** And the F (10 mg/kg oral C(I), Mean ± SD, if M37 (i.v.) is considered as an outlier)?
**A.** 3.22 ± 0.731%

**Q.** And the F (10 mg/kg oral C(I), per animal, 10 mg/kg)?
**A.** 0.419%

**Q.** What about the F (10 mg/kg oral C(I), per animal, if M37 (i.v.) is considered as an outlier, 10 mg/kg) of the same compound?
**A.** 2.71% and 2.90% and 4.06%

**Q.** What about the concentration at 5 min (male, C57Bl/6, mouse, plasma, intravenous, 1 mg/kg, 1 mg/kg i.v. C(I), 5 min, Mean ± SD, read-out: Plasma concentration of C(I)) of the same compound?
**A.** 944 ± 1450 ng/mL

**Q.** And the concentration at 0.25 h [3]?
**A.** 452 ± 691 ng/mL

**Q.** And the concentration at 0.5 h [3]?
**A.** 137 ± 183 ng/mL

**Q.** What about the concentration at 1 h (male, C57Bl/6, mouse, plasma, intravenous, 1 mg/kg, 1 mg/kg i.v. C(I), 1 h, Mean ± SD, read-out: Plasma concentration of C(I)) of the same compound?
**A.** 53.2 ± 64.8 ng/mL

**Q.** And the concentration at 2 h (male, C57Bl/6, mouse, plasma, intravenous, 1 mg/kg, 1 mg/kg i.v. C(I), 2 h, Mean ± SD, read-out: Plasma concentration of C(I))?
**A.** 19.9 ± 28.5 ng/mL

**Q.** What about the concentration at 4 h (male, C57Bl/6, mouse, plasma, intravenous, 1 mg/kg, 1 mg/kg i.v. C(I), 4 h, Mean ± SD, read-out: Plasma concentration of C(I)) of the same compound?
**A.** 3.46 ± 4.7 ng/mL

**Q.** What about the concentration at 6 h (male, C57Bl/6, mouse, plasma, intravenous, 1 mg/kg, 1 mg/kg i.v. C(I), 6 h, mean (n = 2), read-out: Plasma concentration of C(I)) of the same compound?
**A.** 2.51 ng/mL

**Q.** And the clearance [4]?
**A.** 198 mL/min/kg

**Q.** What about the AUC(0-inf) (male, C57Bl/6, mouse, plasma, iv, 1 mg/kg, C(I) in plasma, 1 mg/kg i.v. C(I), Mean ± SD, read-out: AUC0-inf) of the same compound?
**A.** 377 ± 552 ng·h/mL

**Q.** And the AUC(0-t) (male, C57Bl/6, mouse, plasma, iv, 1 mg/kg, C(I) in plasma, 1 mg/kg i.v. C(I), Mean ± SD, read-out: AUC0-tlast)?
**A.** 374 ± 548 ng·h/mL

**Q.** What about the half-life [4] of the same compound?
**A.** 59.8 ± 18.5 min

**Q.** And the C0 (male, C57Bl/6, mouse, plasma, iv, 1 mg/kg, C(I) in plasma, 1 mg/kg i.v. C(I), Mean ± SD, read-out: C0)?
**A.** 1360 ± 2100 ng/mL

**Q.** What about the MRT inf [4] of the same compound?
**A.** 40.1 ± 6.36 min

**Q.** And the Vd (male, C57Bl/6, mouse, plasma, iv, 1 mg/kg, C(I) in plasma, 1 mg/kg i.v. C(I), Mean ± SD, read-out: VSS)?
**A.** 8.44 ± 6.83 L/kg

**Q.** And the half-life [5]?
**A.** 68.4 min

**Q.** What about the MRT inf [5] of the same compound?
**A.** 34.1 min

**Q.** And the concentration at 0.25 h [6]?
**A.** 0.646 ± 0.251 ng/mL

**Q.** What about the concentration at 0.5 h [6] of the same compound?
**A.** 0.877 ± 0.376 ng/mL

**Q.** What about the concentration at 1 h (male, C57Bl/6, mouse, plasma, oral, 1 mg/kg, 1 mg/kg oral C(I), 1 h, mean (n = 2), read-out: Plasma concentration of C(I)) of the same compound?
**A.** 0.898 ng/mL

**Q.** What about the concentration at 1 h (male, C57Bl/6, mouse, plasma, oral, 1 mg/kg, 1 mg/kg oral C(I), 1 h, per animal, BLQ <0.5 ng/mL, read-out: Plasma concentration of C(I)) of the same compound?
**A.** 0.775 ng/mL

**Q.** What about the concentration at 2 h (male, C57Bl/6, mouse, plasma, oral, 1 mg/kg, 1 mg/kg oral C(I), 2 h, mean (n = 2), read-out: Plasma concentration of C(I)) of the same compound?
**A.** 0.537 ng/mL

**Q.** And the concentration at 2 h (male, C57Bl/6, mouse, plasma, oral, 1 mg/kg, 1 mg/kg oral C(I), 2 h, per animal, BLQ <0.5 ng/mL, read-out: Plasma concentration of C(I))?
**A.** 0.474 ng/mL

**Q.** What about the concentration at 4 h (male, C57Bl/6, mouse, plasma, oral, 1 mg/kg, 1 mg/kg oral C(I), 4 h, mean (n = 1), read-out: Plasma concentration of C(I)) of the same compound?
**A.** 0.352 ng/mL
